From patent publication US5614533A, “Substituted pipecolinic acid derivatives as HIV protease inhibitors” (Bio-Mega/Boehringer Ingelheim Research, Inc., priority 1994, dated 1997) come the findings set out here.

Read-outs that look alike come from different tables or passages of the source.

The term IC50 denotes the point on the concentration scale where inhibition reaches its midpoint. Usually EC50 stands for the concentration that produces a half-maximal response. Low readings indicate an effect from little substance, high ones a need for much substance.

The target in assay [1] is T1, HIV protease (Human immunodeficiency virus type 1 group M subtype B, UniProt P04585).
T1 construct: HIV protease was expressed in E. coli; made in house; host or cells: E. coli (plasmid pBRT1 prt+)
Description: Recombinant HIV Protease HPLC Assay. It is filed as biochemical. In a few lines: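 Recombinant protease from E. coli (pBRT1 prt+ construct), purified and diluted 1/38 for use, cleaves the decapeptide substrate VSFNFPQITL-NH2, containing an HIV polyprotein cleavage site. Inhibition of cleavage is monitored by HPLC.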

Assay [2] deals with HIV (H9/HTLV-IIIB) in C8166 cells. Nature of the assay: plaque assay: inhibition of syncytia formation in HIV-infected C8166 cells. It is filed as cell-based. The conditions noted are these: Human immunodeficiency virus 1, IIIB, 72 h, 50% inhibition of syncytia formation. The gist of the method:
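C8166 cells (5×10^4/well) infected with 50× TCID50 H9/HTLV-IIIB in HEPES-buffered RPMI 1640 (pH 7.2), 10% FCS, with test compound in triplicate; 72 h at 37°, 5% CO2. Syncytia centers counted by phase-contrast microscopy; EC50 from percent inhibition versus serial dilutions by non-linear regression.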

With `CC(C)[C@H](NC(=O)c1ccc2ccccc2n1)C(=O)N[C@@H](Cc1ccccc1)[C@H](O)CN1CC[C@@H](Sc2ccccn2)C[C@H]1C(=O)NC(C)(C)C` [Table V, entry 6, N-tert-butyl-1-{2(S)(R)-hydroxy-4-phenyl-3(S)-{{N-(2-quinolylinylcarbonyl)valyl}amino}butyl}-4(R)-(2-pyridinylthio)piperidine-2-carboxamide], the IC50 in assay [1] (Table V, 37°, 30 min, pH 5.5) amounted to 1.9 nM. For the same molecule, the response in assay [2] (Table V) was half-maximal at 4 nM (EC50).

Take `CC(C)[C@H](NC(=O)OCc1ccccc1)C(=O)N[C@@H](Cc1ccccc1)[C@H](O)CN1CC[C@@H](Oc2ccccc2)C[C@H]1C(=O)NC(C)(C)C` [Table IV, entry 16]: the IC50 in assay [1] (Table IV, 37°, 30 min, pH 5.5) is 2.7 nM. In assay [2] (Table IV), this molecule gave an EC50 of 150 nM.

Turning to `CC(C)(C)NC(=O)[C@@H]1C[C@H](Sc2ccncc2)CCN1C[C@@H](O)[C@H](Cc1ccccc1)NC(=O)OCc1ccccc1` [Table IV, entry 29], the IC50 in assay [1] (Table IV, 37°, 30 min, pH 5.5) worked out at 8 nM. The molecule also came in with an EC50 in assay [2] (Table IV) of 140 nM.

`CC(C)(C)NC(=O)[C@@H]1C[C@H](Oc2ccccc2)CCN1C[C@@H](O)[C@H](Cc1ccccc1)NC(=O)[C@H](CC(N)=O)NC(=O)OCc1ccccc1` [Table IV, entry 17]: the IC50 in assay [1] (Table IV, 37°, 30 min, pH 5.5) came to 2.5 nM. The molecule further yielded an EC50 in assay [2] (Table IV) of 42 nM.

As to `CC(C)(C)NC(=O)[C@@H]1C[C@H](Sc2ccccc2)CCN1C[C@@H](O)[C@H](Cc1ccccc1)NC(=O)[C@@H](NC(=O)c1ccc2ccccc2n1)C(C)(C)C` [Table VI, entry 1, N-tert-butyl-1-{2(R)-hydroxy-4-phenyl-3(S)-{{N-(2-quinolylinylcarbonyl)tert-butylglycyl}amino}butyl}-4(R)-(phenylthio)piperidine-2(S)-carboxamide], in assay [1] (Table VI, 37°, 30 min, pH 5.5), the IC50 was 3 nM. For the same molecule, in assay [2] (Table VI), the response was half-maximal at 12 nM (EC50).

For `Cc1ccccc1OCC(=O)N[C@@H](Cc1ccccc1)[C@H](O)CN1CC[C@@H](Sc2ccncc2)C[C@H]1C(=O)NC(C)(C)C` [Table VII, entry 5, N-tert-butyl-1-{3(S)-{{(2-methylphenoxy)acetyl}amino}-2(R)-hydroxy-4-phenylbutyl}-4(R)-(4-pyridinylthio)piperidine-2(S)-carboxamide], in assay [1] (Table VII, 37°, 30 min, pH 5.5), the IC50 was 6.2 nM. For the same molecule, in assay [2] (Table VII), a half-maximal effect (EC50) was put at 140 nM.

As to `CC(C)[C@H](NC(=O)c1ccc2ccccc2n1)C(=O)N[C@@H](Cc1ccccc1)[C@H](O)CN1CC[C@@H](OCc2cccnc2)C[C@H]1C(=O)NC(C)(C)C` [Table V, entry 24, N-tert-butyl-1-{2(R)-hydroxy-4-phenyl-3(S)-{{N-(2-quinolylinylcarbonyl)valyl}amino}butyl}-4(R)-(3-pyridinylmethoxy)piperidine-2(S)-carboxamide], the IC50 in assay [1] (Table V, 37°, 30 min, pH 5.5) stood at 3.7 nM. In assay [2] (Table V), this molecule had an EC50 of 53 nM.

For the molecule `Cc1cc(C)nc(S[C@@H]2CCN(C[C@@H](O)[C@H](Cc3ccccc3)NC(=O)OCc3ccccc3)[C@H](C(=O)NC(C)(C)C)C2)n1` [Table IV, entry 31, N-tert-butyl-1-{3(S)-(benzyloxycarbonylamino)-2(R)-hydroxy-4-phenylbutyl}-4(R)-(4,6-dimethyl-2-pyrimidinylthio)-piperidine-2(S)-carboxamide], in assay [1], the IC50 was 12 nM. Moreover, the EC50 in assay [2] (Table IV) came to 290 nM.

For `Cc1cc(C)nc(S[C@@H]2CCN(C[C@@H](O)[C@H](Cc3ccccc3)NC(=O)[C@@H](NC(=O)c3ccc4ccccc4n3)C(C)C)[C@H](C(=O)NC(C)(C)C)C2)n1` [Table V, entry 4, N-tert-butyl-1-{2(R)-hydroxy-4-phenyl-3(S)-{{N-(2-quinolylinylcarbonyl)valyl}amino}butyl}-4(R)-{(4,6-dimethyl-2-pyrimidinyl)thio}piperidine-2-carboxamide], the IC50 in assay [1] (Table V, 37°, 30 min, pH 5.5) was 2.7 nM. Moreover, the midpoint of the response in assay [2] (Table V), the EC50, lay at 8 nM.

In the case of `CC(C)[C@H](NC(=O)OCc1ccccc1)C(=O)N[C@@H](Cc1ccccc1)[C@H](O)CN1CC[C@@H](C2CCCCC2)C[C@H]1C(=O)NC(C)(C)C` [Table IV, entry 19], in assay [1] (Table IV, 37°, 30 min, pH 5.5), the IC50 is 8 nM. The same molecule displayed a concentration giving a half-maximal response (EC50) in assay [2] (Table IV) of 200 nM.

As for `CC(C)[C@H](NC(=O)c1ccc2ccccc2n1)C(=O)N[C@@H](Cc1ccccc1)[C@H](O)CN1CC[C@@H](S(=O)(=O)c2ccncc2)C[C@H]1C(=O)NC(C)(C)C` [Table V, entry 21, N-tert-butyl-1-{2(R)-hydroxy-4-phenyl-3(S)-{{N-(2-quinolylinylcarbonyl)valyl}amino}butyl}-4(R)-(4-pyridinylsulfonyl)piperidine-2(S)-carboxamide], in assay [1] (Table V, 37°, 30 min, pH 5.5), the IC50 came to 1.7 nM. The molecule also yielded an EC50 in assay [2] (Table V) of 25 nM.

Take `CC(C)[C@H](NC(=O)c1ccc2ccccc2n1)C(=O)N[C@@H](Cc1ccccc1)[C@H](O)CN1CC[C@@H](Oc2ncccn2)C[C@H]1C(=O)NC(C)(C)C` [Table V, entry 10, N-tert-butyl-1-{2(S)(R)-hydroxy-4-phenyl-3(S)-{{N-(2-quinolylinylcarbonyl)valyl}amino}butyl}-4(R)-(2-pyrimidinyloxy)piperidine-2-carboxamide]: the IC50 in assay [1] (Table V, 37°, 30 min, pH 5.5) was found to be 3.2 nM. This molecule displayed a 50% effective concentration (EC50) in assay [2] (Table V) of 25 nM.

Consider `CC(C)(C)NC(=O)[C@@H]1C[C@H](Sc2ccccc2)CCN1C[C@@H](O)[C@H](Cc1ccccc1)NC(=O)[C@H](CC(N)=O)NC(=O)OCc1ccccc1` [Table IV, entry 9, N-tert-butyl-1-{3(S)-{{N-(benzyloxycarbonyl)asparaginyl}amino}-2(R)-hydroxy-4-phenylbutyl}-4(R)-(phenylthio)piperidine-2(S)-carboxamide], for which, in assay [1] (Table IV, 37°, 30 min, pH 5.5), the IC50 is 4 nM. This molecule had an EC50 in assay [2] (Table IV) of 43 nM.

`CC(C)[C@H](NC(=O)OCc1ccccc1)C(=O)N[C@@H](Cc1ccccc1)[C@H](O)CN1CC[C@@H](Sc2ccccc2)C[C@H]1C(=O)NC(C)(C)C` [Table IV, entry 8]: in assay [1] (Table IV, 37°, 30 min, pH 5.5), the IC50 turned out to be 3.9 nM. Further, a half-maximal effect in assay [2] (Table IV) (EC50) was put at 13 nM.

As to `CC(C)[C@H](NC(=O)N(C)Cc1ccccn1)C(=O)N[C@@H](Cc1ccccc1)[C@H](O)CN1CC[C@@H](Sc2ccccc2)C[C@H]1C(=O)NC(C)(C)C` [Table IV, entry 38, N-tert-butyl-1-{2(R)-hydroxy-3(S)-{N-{{N-methyl-N-(2-pyridinylmethyl)amino}carbonyl}valyl}-4-phenylbutyl}-4(R)-(phenylthio)piperidine-2(S)-carboxamide], in assay [1] (Table IV, 37°, 30 min, pH 5.5), the concentration for half-maximal inhibition (IC50) worked out at 4.3 nM. The response in assay [2] (Table IV) was half-maximal at 14 nM (EC50).

Consider `CC(C)(C)NC(=O)[C@@H]1C[C@H](Sc2ccncc2)CCN1C[C@@H](O)[C@H](Cc1ccccc1)NC(=O)c1c(F)cccc1F` [Table VII, entry 8, N-tert-butyl-1-{3(S)-{{(2,6-difluorophenyl)carbonyl}amino}-2(R)-hydroxy-4-phenylbutyl}-4(R)-(4-pyridinylthio)piperidine-2(S)-carboxamide], for which the IC50 in assay [1] (Table VII, 37°, 30 min, pH 5.5) came to 14 nM. This molecule displayed an EC50 in assay [2] (Table VII) of 340 nM.

Consider `CC(C)[C@H](NC(=O)c1ccc2ccccc2n1)C(=O)N[C@@H](Cc1ccccc1)[C@H](O)CN1CC[C@@H](Sc2ncccn2)C[C@H]1C(=O)NC(C)(C)C` [Table V, entry 1, N-tert-butyl-1-{2(R)-hydroxy-4-phenyl-3(S)-{{N-(2-quinolylinylcarbonyl)valyl}amino}butyl}-4(R)-(2-pyrimidinylthio)piperidine-2-carboxamide], for which, in assay [1] (Table V, 37°, 30 min, pH 5.5), the IC50 was 3.6 nM. In assay [2] (Table V), this molecule showed an EC50 of 7 nM.
